According to patent US10092620B2, “Uses of cyclic peptides for treating and preventing atherosclerosis” (THE SCRIPPS RESEARCH INSTITUTE, priority 2013, dated 2018):
Non-standard residues stand in square brackets, D forms with d. Residues, ends and D or L forms follow the SMILES beside them. dNMeW = CN[C@H](Cc1c[nH]c2ccccc12)C(=O)O; 1Nal = N[C@@H](Cc1cccc2ccccc12)C(=O)O; Aoc(2) = CCCCCC[C@H](N)C(=O)O; dNMeS = CN[C@H](CO)C(=O)O; Orn = NCCC[C@H](N)C(=O)O

Tests used:
HDL in human plasma = assay: pre-beta HDL ELISA assay: remodeling HDL in human plasma in vitro; assay type: biochemical; settings: for Pre-beta HDL generated (normalized level): pre-beta HDL ELISA
Protocol: First, various cyclic peptides, including the majority of compounds shown in FIG. 2, were assessed for activities for remodeling HDL in human plasma in vitro. Unlike western blot which was used to generate data shown in FIG. 2, here a pre-beta HDL ELISA assay was used to measure pre-beta HDL levels. Results from the assay are shown in Table 1, which lists the peptides in the order of their activities in remodeling HDL.

[1] = system: mouse macrophage J774 cells; assay: cholesterol efflux from mouse macrophage cells incubated with peptide-treated human plasma; assay type: cell-based; settings: for promotion of cellular cholesterol efflux (in words): J774 cells, 2% apoB-depleted peptide-treated human plasma, 4 h, FIG. 2b
Protocol: Selected cyclic D,L-α-peptides were further evaluated for their ability to promote cellular cholesterol efflux from mouse macrophage J774 cells. A main factor for HDL anti-atherogenicity is its role in reverse cholesterol transport, of which cellular cholesterol efflux is a critical component. To measure efflux mediated by the cyclic D,L-α-peptides, cholesterol-laden cells were incubated with peptide-treated plasma for 4 h, after which the level of cholesterol effluxed to the media was measured as described in Sankaranarayanan et al., J. Lipid Res. 52, 2332-2340, 2011.
Preparation of labeling medium: These procedures were modified from that reported in Sankaranarayanan et al., J. Lipid Res. 52, 2332-2340, 2011. The labeling medium was prepared by complexing the unlabeled cholesterol and BODIPY-cholesterol (20% of the total cholesterol) with methyl-β-cyclodextrin (CD) at a molar ratio of 1:40 (total cholesterol/CD). Unlabeled cholesterol and BODIPY-cholesterol were dissolved in chloroform and dried in a round bottom flask by rotor-evaporation in the dark to form a thin film. The cholesterol mixture was solubilized by adding 20 mM CD in MEM-HEPES buffer. The suspension was sonicated in a water bath (37° C.) for at 1 h, stirred at 37° C. for 3 h, filtered using a 0.45-μm syringe filter, and diluted with an equal volume of MEM-HEPES buffer containing 4 μg/mL Sandoz ACAT (acyl-CoA:cholesterol acyltransferase) inhibitor (Sigma). The final concentrations of BODIPY-cholesterol, unlabeled cholesterol, CD, and ACAT inhibitor in the labeling medium were 0.025 mM, 0.1 mM, 10 mM, and […], respectively.
Preparation of efflux medium: Just before the initiation of the efflux assays, the human plasma frozen at −80° C. was thawed, and 80 μL of plasma was incubated with 20 μL of cyclic peptide stocks (peptide stocks were 1-3 mg/mL in 10% sucrose) or the vehicle (10% sucrose) at 37° C. for 30 min. The treated plasma samples (100 μL) were then incubated with 25% PEG 8000 solution in 200 mM glycine buffer, pH 8.5 (40 μL) to precipitate apoB-containing lipoproteins (Asztalos et al., J. Lipid Res. 46, 2246-2253, 2005). After a 15-min incubation, the precipitate was removed by high-speed centrifugation (13,000 rpm, 10 min, 4° C.), and the supernatant (60 μL) was immediately diluted with MEM-HEPES buffer (1.5 mL) to give ˜2% whole plasma. This solution, containing the peptide remodeled-HDL lipoprotein fraction as cholesterol acceptors, was used as the efflux medium.
Cholesterol efflux from mouse macrophage cells: Mouse macrophage J774A.1 cells (TIB-67; American Type Culture Collection, Manassas, Va.) were seeded in 12-well culture plate at 3×10^5 cells/mL and cultured to 80-90% confluency in DMEM with 10% FBS at 5% CO2. Cells were rinsed twice with MEM-HEPES, incubated for 1 h with 0.25 ml of labeling medium containing CD/BODIPY-cholesterol/unlabeled cholesterol and 2 μg/mL Sandoz ACAT inhibitor, followed by washing twice with MEM-HEPES. The cholesterol-laden cells were equilibrated for 18 h in DMEM containing 5% LPDS, […] Sandoz ACAT inhibitor, and 0.3 mM Cpt-cAMP. After equilibration, the cells were washed twice with MEM-HEPES and incubated with 0.25 mL of efflux media for 4 h. At the end of the incubation time, the efflux media was removed and centrifuged (1200 rpm, 10 min) to remove floating cells, and the fluorescence intensity of 100 μL cell-free media was recorded using a Tecan GENios plate reader (excitation 485 nm, emission 535 nm). The obtained signals were background subtracted using the signal from unlabeled cells. The cell monolayers were rinsed twice with ice-cold MEM-HEPES and solubilized with 0.25 mL 1% cholic acid by shaking on a plate shaker for at least 4 h at room temperature; then the fluorescence intensity of 100 μL cell lysate was recorded and background subtracted using the signal from unlabeled cell lysate. […]

human plasma HDL = human plasma HDL remodeling (NDGGE, immunoblot for human apoA-I); assay type: biochemical; settings: human plasma in vitro; Western blot for apoA-I; FIGS. 1 and 2a
Source text: As an initial phase of investigation, we evaluated in vitro the effectiveness of our cyclic D,L-α-peptides to remodel mature human plasma HDLs into lipid-poor HDL (FIG. 1 and FIG. 2a). Lipid-poor HDL particles are key acceptors of cholesterol in reverse cholesterol transport and are thus crucial for combating atherosclerosis. In fact, with respect to the cholesterol efflux capacity of human sera, the levels of lipid-poor HDL correlate much better than the levels of HDL-cholesterol or apoA-I. Briefly, our assay involved incubating human plasma with a peptide, after which the plasma sample was subjected to non-denaturing gradient gel electrophoresis (NDGGE) to separate the HDL subspecies and then immunoblotted for human apoA-I. The ranked activities of the cyclic D,L-α-peptides in promoting formation of lipid-poor HDL are shown in FIG. 1. It should be noted that there are inherent variabilities associated with electrophoretic transfer, staining, and densitometric quantitation, so the peptide ranking should be viewed as an approximate guide to relative plasma HDL remodeling efficacy. Nevertheless, the rankings were similar overall whether the panel was assayed by using peptide stock solutions prepared in 10% sucrose/H2O (FIGS. 1 and 2a) or peptide stock solutions prepared in 1:1 DMSO/H2O. From these preliminary structure-activity relationship (SAR) studies, we identified a pronounced sequence dependence for efficient plasma HDL remodeling (vide infra).
Human plasma remodeling: All procedures involving human samples were approved by TSRI Institutional Review Board. Procedures were modified from those reported in Troutt et al., J. Lipid Res. 49, 581-587, 2008. Blood samples from normal healthy human donors were obtained from TSRI Normal Blood Donor Program. EDTA-anticoagulated whole blood was centrifuged at 1500×g for 15 min within 1 h of being drawn from the donor. The plasma layer was aliquoted and used immediately or frozen at −80° C. for future use. Peptide stock solutions were prepared at ˜15 mM peptide in 50% DMSO for initial screenings, or at ˜2 mM peptide in 10% sucrose for remodeling assays at lower concentrations (FIG. 1) and cholesterol efflux assays (FIG. 2). Plasma samples (30 μL) were treated with peptide stocks, and the samples were incubated at 37° C. for 0.5-1 h, and then quenched by adding 270 μL of 50% sucrose (1:9 dilution). Samples were mixed with 6× native loading buffer (125 mM tris, pH 6.8, 0.02% bromophenol, 20% glycerol), of which 6 μL was loaded onto a 4-20% polyacrylamide gel. The molecular weight ladder used was High Molecular Weight Calibration Kit (Amersham Biosciences, #17-0445-01). […] The films were scanned and quantified by densitometry using the program LabWorks (v. 4.0.0.8). […]

Compound | Pre-beta HDL generated (normalized level) (HDL in human plasma) | activity in generating pre-beta HDL (in words) (HDL in human plasma) | further results
79 (cyclo([dW]L[dK]S[dK]S[dK]S); SMILES CC(C)C[C@@H]1NC(=O)[C@@H](Cc2c[nH]c3ccccc23)NC(=O)[C@H](CO)NC(=O)[C@@H](CCCCN)NC(=O)[C@H](CO)NC(=O)[C@@H](CCCCN)NC(=O)[C@H](CO)NC(=O)[C@@H](CCCCN)NC1=O) [compound 79] | 0.01 |  | 
80 (cyclo([dW]L[dW]R[dD]Q[dE]K); SMILES CC(C)C[C@@H]1NC(=O)[C@@H](Cc2c[nH]c3ccccc23)NC(=O)[C@H](CCCCN)NC(=O)[C@@H](CCC(=O)O)NC(=O)[C@H](CCC(N)=O)NC(=O)[C@@H](CC(=O)O)NC(=O)[C@H](CCCNC(=N)N)NC(=O)[C@@H](Cc2c[nH]c3ccccc23)NC1=O) [compound 80] | 0.01 |  | 
CC(C)C[C@@H]1NC(=O)[C@@H](Cc2c[nH]c3ccccc23)NC(=O)[C@H](CCCN)NC(=O)[C@@H](CO)NC(=O)[C@H](CCC(N)=O)NC(=O)[C@@H](CCC(=O)O)NC(=O)[C@H](CO)NC(=O)[C@@H](Cc2c[nH]c3ccccc23)NC1=O [SEQ ID NO:4, c[wLwSeQsO]] (cyclo([dW]L[dW]S[dE]Q[dS][Orn])) | 0.59 |  | toxicity based on the cellular morphology and density ([1]; J774 cells in the efflux assay): did not appear to be toxic; promotion of cellular cholesterol efflux (in words) [1]: only marginally less effective than the α-helical apoA-I mimetic 4F
Ac-wLwSeQsO-NH2 (Ac-[dW]L[dW]S[dE]Q[dS][Orn]-NH2) [SEQ ID NO:45, acetylated linear peptide] |  |  | plasma HDL remodeling to lipid-poor HDL (in words) (human plasma HDL): failed to remodel plasma HDL; promotion of cellular cholesterol efflux (in words) [1]: failed to remodel plasma HDL or promote cholesterol efflux
c[WIWrEqEr] (cyclo(WIW[dR]E[dQ]E[dR]); SMILES CC[C@H](C)[C@@H]1NC(=O)[C@H](Cc2c[nH]c3ccccc23)NC(=O)[C@@H](CCCNC(=N)N)NC(=O)[C@H](CCC(=O)O)NC(=O)[C@@H](CCC(N)=O)NC(=O)[C@H](CCC(=O)O)NC(=O)[C@@H](CCCNC(=N)N)NC(=O)[C@H](Cc2c[nH]c3ccccc23)NC1=O) [SEQ ID NO:50] |  | excellent activities in generating plasma pre-beta HDL | 
c[WlWwkhkh] (cyclo(WIW[dW][dK][dH][dK][dH])) [SEQ ID NO:47] |  | excellent activities in generating plasma pre-beta HDL | 
c[fWwYqHhQ] (cyclo([dF]W[dW]Y[dQ]H[dH]Q); SMILES NC(=O)CC[C@@H]1NC(=O)[C@@H](Cc2c[nH]cn2)NC(=O)[C@H](Cc2c[nH]cn2)NC(=O)[C@@H](CCC(N)=O)NC(=O)[C@H](Cc2ccc(O)cc2)NC(=O)[C@@H](Cc2c[nH]c3ccccc23)NC(=O)[C@H](Cc2c[nH]c3ccccc23)NC(=O)[C@@H](Cc2ccccc2)NC1=O) [SEQ ID NO:5] |  | excellent activities in promoting generation of pre-beta HDL | 
c[fWwYtRhS] (cyclo([dF]W[dW]Y[dT]R[dH]S); SMILES C[C@H](O)[C@H]1NC(=O)[C@H](Cc2ccc(O)cc2)NC(=O)[C@@H](Cc2c[nH]c3ccccc23)NC(=O)[C@H](Cc2c[nH]c3ccccc23)NC(=O)[C@@H](Cc2ccccc2)NC(=O)[C@H](CO)NC(=O)[C@@H](Cc2c[nH]cn2)NC(=O)[C@H](CCCNC(=N)N)NC1=O) [SEQ ID NO:51] |  | excellent activities in promoting generation of pre-beta HDL | 
c[wL^MewSeQ^MesO] (cyclo([dW]L[dNMeW]S[dE]Q[dNMeS][Orn])) [SEQ ID NO:14] |  |  | plasma HDL remodeling to lipid-poor HDL (in words) (human plasma HDL): greatly diminished compared to the unmethylated parent, compound 4; promotion of cellular cholesterol efflux (in words) [1]: greatly diminished compared to the unmethylated parent, compound 4
c[wLwKeNeK] (cyclo([dW]L[dW]K[dE]N[dE]K); SMILES CC(C)C[C@@H]1NC(=O)[C@@H](Cc2c[nH]c3ccccc23)NC(=O)[C@H](CCCCN)NC(=O)[C@@H](CCC(=O)O)NC(=O)[C@H](CC(N)=O)NC(=O)[C@@H](CCC(=O)O)NC(=O)[C@H](CCCCN)NC(=O)[C@@H](Cc2c[nH]c3ccccc23)NC1=O) [SEQ ID NO:11] | 0.24 |  | 
w(Aoc)wReQeR (cyclo([dW][Aoc(2)][dW]R[dE]Q[dE]R); ring closure inferred) [SEQ ID NO:31] | 0.04 |  | 
w(Nal)wReQeR (cyclo([dW][1Nal][dW]R[dE]Q[dE]R); ring closure inferred) [SEQ ID NO:28] | 0.35 |  | 
